The test system of series [1] is patients with primary premature ejaculation. Nature of the series: On-demand treatment of primary premature ejaculation: onset of action. The class given is in vivo, men. The conditions noted are these: intracavernosal injection, 5-20 mcg, 20 mcg/ml.
Description: Side-effects are dose related and include dizziness, headache, nausea, blurred vision and dry mouth.
The doses start at lower doses such as 5 mcg=0.25 ml and progress to higher doses such as 10 mcg=0.5 ml and 20 mcg=1 ml, as needed, to achieve the desired effect.
Series [2] has as its system men with premature ejaculation. The conditions noted are these: cited from earlier work.
In series [3] the test system is patients receiving intracavernous injection. The following applies: pooled publications; cited from earlier work.

The values below come from US9192613B1, “Treatment method for primary premature ejaculation” (Sapere IP, LLC, priority 2014, dated 2015).

For the molecule `CCCCC[C@H](O)/C=C/[C@H]1[C@H](O)CC(=O)[C@@H]1CCCCCCC(=O)O` [Alprostadil], the “Onset of Action” value in series [1] lay in the range of 5 to 10 min.

As to `CN(C)CCCN1c2ccccc2CCc2ccc(Cl)cc21` [Clomipramine], in series [2] (oral administration), the “Effect at delaying ejaculation” value was “significant effect at delaying ejaculation”. For the same molecule, the “Time the drug needs to be taken before sexual relations” value in series [2] (oral, on-demand use) is 3 to 4 h.

As to `COc1ccc(Cc2nccc3cc(OC)c(OC)cc23)cc1OC` [Papaverine], in series [3], the “Fibrosis (%)” value was 5.7%, the “Liver Enzymes (%)” value was 1.6%, the “Pain (%)” value is 4% and the “Priapism (%)” value is 7.1%.
